Assay results as given in patent US10781229B2, “Tris- or neopentyl glycol-based amphiphiles and uses thereof” (Industry-University Cooperation Foundation Hanyang …, priority 2015, dated 2020).
Values belong to the compound of their own block, whether it stands above or below them.

Legend:
LeuT E192C^TMR = LeuT E192C^TMR (Aquifex aeolicus, UniProt O67854, E192C); assay: Site-directed fluorescence (iodide) quenching of LeuT E192C-TMR, Stern-Volmer analysis; assay type: biochemical
Description: A principle of this experiment is as follows: A cysteine residue was inserted into a 192th LeuT site (E192C), followed by coupling with a thiol-reactive fluorophore (tetramethylrhodamine-5-maleimide, TMR). The prepared LeuT E192C^TMR, as TMR-coupled LeuT, is an excellent system to sensitively monitor protein structure change in response to ligand coupling. […] Due to such change, TMR fluorescence molecules exposed to an aqueous solution become closer to iodide (I^−), as a quencher dissolved in water, whereby strong fluorescence quenching is caused. TMR quenching intensity by leucine coupling may be represented by Stern-Volmer plotting and thus structural flexibility of a protein may be directly measured. Ligand bindability of the TMR-labeled transporter was measured using SPA while increasing the amount of [^3H]leucine.
In particular, structure, expression, purification, and fluorescence labeling were performed according to the following methods. In accordance with a method disclosed in a paper published by C. B. Billesbolle, et al. (J. Biol. Chem. 2015, 290, 26725-26738), a leucine transporter mutant (LeuT E192C^TMR) was produced and purification and labeling were carried out. In summary, a residue of the E192 was mutated with cysteine using QuikChange (Agilent Technologies) such that fluorescence coupling was accomplished by maleimide labeling. The LeuT mutant was expressed in E. coli C41 (DE3). A membrane of DE3 was disrupted and LeuT was solubilized with 1% (w/v) DDM. Subsequently, LeuT solubilized with the amphipathic molecule was fixed to a Chelating Sepharose Fast Flow resin (GE Healthcare, Little Chalfont, UK), followed by washing with tetramethylrhodamine-5-maleimide (TMR, Life Technologies, Carlsbad, Calif., USA) at 4° C. for 16 hours. Subsequently, LeuT was eluted with a buffer containing 300 mM imidazole, 20 mM Tris-HCl (pH 8.0), 1 mM NaCl, 199 mM KCl, and 0.05% DDM.
Fluorescence spectroscopy was carried out according to the following method. A fluorescence-based experiment was carried out by diluting 0.5 μg ml^−1 of fluorescence-labeled LeuT with buffer A supplemented with CMC+0.04% by weight of DDM, MNG-3 or NDT-C11. Leucine was separately added to specimen aliquots of LeuT for each concentration and incubated for one hour in a room temperature shaker. Steady-state fluorescence intensities were recorded with a FluoroMax4 (Horiba Scientific, Edison, N.J., USA) at λem=572 nm and excitation source at λex=552 nm at 25° C. Quencher-titration was carried out by successive additions of small specimen aliquots containing 1 M KI into buffer A supplemented with 10 mM Na2S2O3. Fluorescence intensities (F) were corrected for sample dilution and normalized to the initial intensity (F0) of a sample. All data was analyzed by linear-(Stern-Volmer plot) or nonlinear regression in GraphPad Prism 6.0 (GraphPad Software). The degree of iodide (I^−) accessibility was obtained from the following Stern-Volmer equation: F0/F=1+Ksv×[Q], where F0/F is normalized fluorescence quenching, Ksv is a Stern-Volmer constant, and [Q] is quencher concentration. When means are calculated as a log, the means are shown as pIC50 and the [s.e.m. interval] from pIC50±s.e.m.
Values of radioligand binding constants were calculated through SPA saturation binding experiments. Values of iodide quenching-response constants and ΔKSV were calculated from a site-directed fluorescence quenching spectroscopy. The affinity (Kd) is shown as means±s.e.m and ΔKSV is shown as means [s.e.m. interval]. All data is shown as means of three to four independent experiments.

[1] = Hydrodynamic radius and size distribution of micelles by dynamic light scattering (DLS); assay type: physicochemical
Description: A method of measuring the radius of a micelle is not specifically limited and may be any method generally known in the art. For example, the radius may be measured by a dynamic light scattering (DLS) experiment.
In particular, critical micellar concentrations (CMCs) were measured using hydrophobic fluorescence staining and diphenylhexatriene (DPH), and hydrodynamic radii (Rh) of micelles formed of each material were measured by a dynamic light scattering (DLS) experiment. Measured results are compared to values of DDM as an existing amphipathic molecule (detergent).
Meanwhile, size distributions of the micelles formed of TDTs and NDTs were measured using DLS. Results are illustrated in FIG. 5. TDTs or NDTs were respectively used in an amount of 0.5% by weight. As a result, micelles of TDTs or NDTs were measured as forming a single community.

[2] = tested on: leucine transporter (LeuT); assay: LeuT stability by [3H]-Leu scintillation proximity assay (SPA); assay type: biochemical, Aquifex aeolicus; conditions: CMC+0.2% by weight, room temperature
Description: Experiments to measure the structural stability of a leucine transporter (LeuT) protein by TDTs or NDTs were conducted. LeuT protein activity was measured by scintillation proximity assay (SPA) utilizing [^3H]-Leu as a ligand. The concentration of TDTs, NDTs, or DDM was (a) CMC+0.04% by weight, or (b) CMC+[…].
In particular, the LeuT stability measurement experiments were conducted according to the following methods. Depending upon the results of UapA and MelB, only TDT-C11, TDT-C12, NDT-C10, NDT-C11 and NDT-C12 among the amphipathic molecules according to the present invention were selectively used. In accordance with a method disclosed in a paper published by G. Deckert, et al. (Nature 1998, 392, 353-358), a wild-type leucine transporter (LeuT) was purified from Aquifex aeolicus. LeuT is expressed in E. coli C41 (DE3) transformed with pET16b encoding a C-terminal 8×His-tagged transporter (the expression plasmid was provided by Dr E. Gouaux, Vollum Institute, Portland, Oreg., USA). In summary, the […] protein was isolated and solubilized with 1.0% by weight of DDM, followed by binding the protein to a Ni^2+-NTA resin (Life Technologies, Denmark) and eluting the same with 20 mM Tris-HCl (pH 8.0), 1 mM NaCl, 199 mM KCl, 0.05% DDM, and 300 mM imidazole. Next, about 1.5 mg/ml of a protein stock was 10-fold diluted with a buffer in which DDM and imidazole are absent, but TDTs, NDTs, or DDM (control) is supplemented such that a final concentration becomes CMC+0.04% by weight or CMC+0.2% by weight. Protein samples were stored at room temperature and centrifuged at a predetermined time. To evaluate protein activity, [^3H]-Leu coupling was measured using scintillation proximity assay (SPA) (M. Quick et al., Proc. Natl, Acad. Sci. U.S.A. 2007, 104, 3603-3608). 5 μL of each protein sample dissolved in a buffer that contained 200 mM NaCl and each test compound was analyzed. SPA reaction was carried out in the presence of 20 nM [^3H]-Leu and copper chelate (His-Tag) YSi beads (both purchased from PerkinElmer, Denmark). [^3H]-Leu coupling was measured by means of a MicroBeta liquid scintillation counter (PerkinElmer).

[3] = target: T1, melibiose permease (MelB), MelBSt (Salmonella typhimurium, UniProt P30878); assay: MelB extraction efficiency and stability by SDS-PAGE and western immunoblotting; conditions: 1.5% by weight; for MelB protein solubilization effect versus temperature: 0 to 45° C. and above; for MelB protein extraction efficiency from membrane: 0° C.
T1 construct: made in house; host or cells: 'Salmonella typhimurium DW2 cell (melB and lacZY)', plasmid pK95AHB/WT MelBSt/CH10
Description: Experiments to measure the extraction efficiency and structural stability of a Salmonella typhimurium melibiose permease (MelB) protein by TDTs or NDTs were conducted. The MelB protein was extracted using TDTs, NDTs, or DDM and then the amounts and structures of extracted proteins were quantitatively analyzed by SDS-PAGE and western immunoblotting. The concentrations of the used amphipathic molecules were 1.5% by weight. Protein extraction was carried out at four temperatures (0, 45, 55 or 65° C.) for 90 minutes to simultaneously evaluate the protein extraction efficiency and stabilization ability of the amphipathic molecules.
In particular, in accordance with a method disclosed in a paper (P. S. Chae, et al., Chemistry. 2013, 19, 15645-15651) published by the present inventors, a protein (MelBSt) was produced using a pK95AHB/WT MelBSt/CH10 plasmid and a Salmonella typhimurium DW2 cell (melB and lacZY) to encode wild-type MelB having a 10-His tag at a C-terminal. In accordance with a method disclosed in a paper (Nat. Commun. 2014, 5, 3009) published by A. S. Ethayathulla, et al., cell proliferation and membrane preparation was carried out. Protein analysis was performed using a Micro BCA kit (Thermo Scientific, Rockford, Ill.). So as to measure the solubilization/stability of MelBSt, a membrane sample including MelBSt (final protein concentration of 10 mg/mL) was mixed with a solubilization buffer (20 mM sodium phosphate, pH 7.5, 200 mM NaCl, 10% glycerol, and 20 mM melibiose) and 1.5% (w/v) DDM, TDTs or NDTs. An extracted product was incubated at four temperatures (0, 45, 55 and 65° C.) for 90 minutes. Ultracentrifugation was carried out for 45 minutes at 4° C. and 355,590 g by means of a Beckman Optima™ MAX ultracentrifuge and a TLA-100 rotor. Subsequently, 20 μg of a protein was separated by SDS-16% PAGE and then subjected to immunoblotting with a Penta-His-HRP antibody (Qiagen, Germantown, Md.).

T1 sequence (P30878 whole entry): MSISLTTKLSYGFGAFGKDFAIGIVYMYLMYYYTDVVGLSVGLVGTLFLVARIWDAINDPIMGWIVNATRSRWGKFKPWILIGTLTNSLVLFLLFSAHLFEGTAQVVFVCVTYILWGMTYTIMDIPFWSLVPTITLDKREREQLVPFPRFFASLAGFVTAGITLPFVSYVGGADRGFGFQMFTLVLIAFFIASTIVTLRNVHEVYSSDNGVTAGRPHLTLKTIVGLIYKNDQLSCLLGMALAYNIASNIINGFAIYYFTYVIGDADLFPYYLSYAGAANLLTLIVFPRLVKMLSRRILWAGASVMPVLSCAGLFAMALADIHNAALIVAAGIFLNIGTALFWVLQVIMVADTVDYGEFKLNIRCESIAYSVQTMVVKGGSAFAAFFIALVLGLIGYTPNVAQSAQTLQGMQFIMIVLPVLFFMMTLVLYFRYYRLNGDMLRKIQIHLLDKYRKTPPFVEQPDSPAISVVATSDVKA

Rh (hydrodynamic radius of micelles) [1]: 3.1 ± 0.1 nm
Compound: CCCCCCCCCC(CCCCCCCCC)COCC(CO[C@@H]1OC(CO)[C@@H](O)C(O)C1O)(CO[C@@H]1OC(CO)[C@@H](O)C(O)C1O)CO[C@@H]1OC(CO)[C@@H](O)C(O)C1O (stereo partly shown) [NDT-C9]

Rh (hydrodynamic radius of micelles) [1]: 3.4 ± 0.4 nm
Compound: CCCCCCCCCC(CCCCCCCCC)C(=O)NC(CO[C@@H]1OC(CO)[C@@H](O)C(O)C1O)(CO[C@@H]1OC(CO)[C@@H](O)C(O)C1O)CO[C@@H]1OC(CO)[C@@H](O)C(O)C1O (stereo partly shown) [TDT-C9]

Rh (hydrodynamic radius of micelles) [1]: 4.5 ± 0.2 nm
Compound: CCCCCCCCCCC(CCCCCCCCCC)C(=O)NC(CO[C@@H]1OC(CO)[C@@H](O)C(O)C1O)(CO[C@@H]1OC(CO)[C@@H](O)C(O)C1O)CO[C@@H]1OC(CO)[C@@H](O)C(O)C1O (stereo partly shown) [TDT-C10]

Further lines, the compound ahead of its results:

Compound: CCCCCCCCCCC(CCCCCCCCCC)(CO[C@@H]1O[C@H](CO)[C@@H](O[C@H]2O[C@H](CO)[C@@H](O)[C@H](O)[C@H]2O)[C@H](O)[C@H]1O)CO[C@@H]1O[C@H](CO)[C@@H](O[C@H]2O[C@H](CO)[C@@H](O)[C@H](O)[C@H]2O)[C@H](O)[C@H]1O [MNG-3]
Structural fluidity of the LeuT protein (LeuT E192C^TMR; conclusion from ΔKsv): tends to greatly limit the structural fluidity
Δ KSV (LeuT E192C^TMR; leucine-induced change of iodide accessibility of TMR, CMC+0.04% by weight detergent, means [s.e.m. interval]): 0.4 M⁻¹

Compound: CCCCCCCCCCC(CCCCCCCCCC)COCC(CO[C@@H]1OC(CO)[C@@H](O)C(O)C1O)(CO[C@@H]1OC(CO)[C@@H](O)C(O)C1O)CO[C@@H]1OC(CO)[C@@H](O)C(O)C1O (stereo partly shown) [NDT-C10]
LeuT protein stabilization ability ([3H]-Leu binding) [2]: excellent
Rh (hydrodynamic radius of micelles) [1]: 3.2 ± 0.1 nm

Compound: CCCCCCCCCCCCC(CCCCCCCCCCCC)COCC(CO[C@@H]1OC(CO)[C@@H](O)C(O)C1O)(CO[C@@H]1OC(CO)[C@@H](O)C(O)C1O)CO[C@@H]1OC(CO)[C@@H](O)C(O)C1O (stereo partly shown) [NDT-C12]
LeuT protein stabilization ability ([3H]-Leu binding) [2]: excellent
Rh (hydrodynamic radius of micelles) [1]: 3.8 ± 0.4 nm
MelB protein solubilization effect versus temperature [3]: increase with elevating temperature
MelB protein extraction efficiency from membrane ([3]; 90 minutes): Slightly decreased solubilization effects

Compound: CCCCCCCCCCCC(CCCCCCCCCCC)C(=O)NC(CO[C@@H]1OC(CO)[C@@H](O)C(O)C1O)(CO[C@@H]1OC(CO)[C@@H](O)C(O)C1O)CO[C@@H]1OC(CO)[C@@H](O)C(O)C1O (stereo partly shown) [TDT-C11]
Rh (hydrodynamic radius of micelles) [1]: 37 ± 8.0 nm
Amount of MelB protein dissolved ([3]; 55° C., 90 minutes): 65%

Compound: CCCCCCCCCCCCC(CCCCCCCCCCCC)C(=O)NC(CO[C@@H]1OC(CO)[C@@H](O)C(O)C1O)(CO[C@@H]1OC(CO)[C@@H](O)C(O)C1O)CO[C@@H]1OC(CO)[C@@H](O)C(O)C1O (stereo partly shown) [TDT-C12]
Rh (hydrodynamic radius of micelles) [1]: 53 ± 1.2 nm
MelB protein solubilization effect versus temperature [3]: increase with elevating temperature
MelB protein extraction efficiency from membrane ([3]; 90 minutes): Slightly decreased solubilization effects
